# Results reported in patent publication US20090215857A1 (Pfizer Products Inc., priority 2005, published 2009).
# Experiments:
# [1] = biological target: T1, human norepinephrine transporter (Homo sapiens, UniProt P23975); test: hNET receptor binding ([125I]-RTI-55 radioligand); conditions: membranes of HEK-293 cells transfected with human norepinephrine transporter cDNA; 50 pM [125I]-RTI-55; IC50 converted by Cheng-Prusoff; read-out: NET Ki
# T1 construct: expressed in transfected cells; host or cells: HEK-293
# T1 sequence (P23975 whole entry): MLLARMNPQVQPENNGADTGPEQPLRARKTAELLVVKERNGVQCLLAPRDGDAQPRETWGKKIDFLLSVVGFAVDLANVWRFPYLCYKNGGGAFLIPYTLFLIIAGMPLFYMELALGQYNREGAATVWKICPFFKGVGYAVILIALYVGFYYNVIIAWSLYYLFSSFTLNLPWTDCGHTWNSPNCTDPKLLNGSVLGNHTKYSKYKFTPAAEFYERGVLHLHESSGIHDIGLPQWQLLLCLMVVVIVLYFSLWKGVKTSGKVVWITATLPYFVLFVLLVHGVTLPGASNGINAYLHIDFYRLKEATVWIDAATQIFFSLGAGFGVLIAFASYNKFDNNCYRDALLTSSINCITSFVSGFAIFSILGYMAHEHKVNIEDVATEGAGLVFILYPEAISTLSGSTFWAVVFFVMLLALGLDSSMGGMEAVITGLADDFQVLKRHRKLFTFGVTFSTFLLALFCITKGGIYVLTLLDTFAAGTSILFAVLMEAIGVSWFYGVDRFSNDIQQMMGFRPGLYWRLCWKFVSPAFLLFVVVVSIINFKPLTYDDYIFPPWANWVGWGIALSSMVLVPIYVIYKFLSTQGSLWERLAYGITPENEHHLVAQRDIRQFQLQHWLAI
# In short: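 Membranes from HEK-293 cells expressing human NET were incubated 90 min at room temperature with 50 pM [125I]-RTI-55 and test compound (10^−5M to 10^−12M) in Krebs-HEPES, pH 7.4.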
# [2] = biological target: T2, human serotonin transporter (Homo sapiens, UniProt P31645); test: hSERT receptor binding ([125I]-RTI-55 radioligand); conditions: membranes of HEK-293 cells transfected with human serotonin transporter cDNA; 50 pM [125I]-RTI-55; IC50 converted by Cheng-Prusoff; read-out: SERT Ki
# T2 construct: expressed in transfected cells; host or cells: HEK-293
# T2 sequence (P31645 whole entry): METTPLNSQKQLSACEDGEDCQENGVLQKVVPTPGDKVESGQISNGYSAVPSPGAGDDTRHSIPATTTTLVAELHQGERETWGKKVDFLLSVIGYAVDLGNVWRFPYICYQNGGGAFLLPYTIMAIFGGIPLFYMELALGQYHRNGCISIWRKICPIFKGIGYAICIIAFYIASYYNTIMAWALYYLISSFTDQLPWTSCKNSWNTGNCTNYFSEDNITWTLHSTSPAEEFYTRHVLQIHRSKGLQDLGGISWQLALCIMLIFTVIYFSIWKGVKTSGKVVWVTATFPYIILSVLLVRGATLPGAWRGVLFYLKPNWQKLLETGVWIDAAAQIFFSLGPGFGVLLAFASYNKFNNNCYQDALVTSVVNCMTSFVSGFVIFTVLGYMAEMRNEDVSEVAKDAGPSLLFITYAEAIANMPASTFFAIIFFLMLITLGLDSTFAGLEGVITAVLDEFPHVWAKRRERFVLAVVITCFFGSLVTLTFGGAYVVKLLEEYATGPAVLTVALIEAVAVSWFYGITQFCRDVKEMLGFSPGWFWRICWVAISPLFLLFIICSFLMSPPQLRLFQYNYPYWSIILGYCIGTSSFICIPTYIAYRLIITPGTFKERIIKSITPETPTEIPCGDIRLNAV
# In short: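 Ki values derive via Cheng-Prusoff from IC50s of displacement of 50 pM [125I]-RTI-55 binding to transfected HEK-293 membranes, 90 min at room temperature in pH 7.4 Krebs-HEPES buffer. Compounds spanned 10^−12 to 10^−5 M, in duplicate; nonspecific binding was set with 10 μM citalopram.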
SMILES,Ki [1],Ki [2]
"CC(=O)c1cccc(-c2ccc(F)cc2CO[C@H]2CCNC2)c1 [Example D-81, (S)-1-[4′-Fluoro-2′-(pyrrolidin-3-yloxymethyl)-biphenyl-3-yl]-ethanone]",1.97 µM,0.371 µM
"Cc1cccc(-c2ccc(F)cc2CO[C@H]2CCNC2)c1C [Example D-82, (S)-3-(4-Fluoro-2′,3′-dimethyl-biphenyl-2-ylmethoxy)-pyrrolidine]",0.258 µM,0.0771 µM
"Fc1ccc(-c2ccc(Cl)c(Cl)c2)c(CO[C@H]2CCNC2)c1 [Example D-83, (S)-3-(3′,4′-Dichloro-4-fluoro-biphenyl-2-ylmethoxy)-pyrrolidine]",0.109 µM,0.0716 µM
"COc1ccc(-c2ccc(F)cc2CO[C@H]2CCNC2)cc1OC [Example D-84, (S)-3-(4-Fluoro-3′,4′-dimethoxy-biphenyl-2-ylmethoxy)-pyrrolidine]",1.92 µM,0.0704 µM
"CCOc1ccc(-c2ccc(F)cc2CO[C@H]2CCNC2)cc1 [Example D-85, (S)-3-(4′-Ethoxy-4-fluoro-biphenyl-2-ylmethoxy)-pyrrolidine]",0.706 µM,0.324 µM
"Fc1cc(F)cc(-c2ccc(F)cc2CO[C@H]2CCNC2)c1 [Example D-86, (S)-(4,3′,5′-Trifluoro-biphenyl-2-ylmethoxy)-pyrrolidine]",0.278 µM,0.0762 µM
"OCc1cccc(-c2ccc(F)cc2CO[C@H]2CCNC2)c1 [Example D-87, (S)-[4′-Fluoro-2′-(pyrrolidin-3-yloxymethyl)-biphenyl-3-yl]-methanol]",3.08 µM,0.124 µM
"CC(C)OC(=O)c1ccc(-c2ccc(F)cc2CO[C@H]2CCNC2)cc1 [Example D-88, (S)-4′-Fluoro-2′-(pyrrolidine-3-yloxymethyl)-biphenyl-4-carboxylic acid isopropyl ester]",1.03 µM,1.04 µM
"Cc1ccc(C)c(-c2ccc(F)cc2CO[C@H]2CCNC2)c1 [Example D-89, (S)-3-(4-Fluoro-2′,5′-dimethyl-biphenyl-2-ylmethoxy)-pyrrolidine]",0.189 µM,0.268 µM
"Oc1cccc(-c2ccc(F)cc2CO[C@H]2CCNC2)c1 [Example D-90, (S)-4′-Fluoro-2′-(pyrrolidin-3-yloxymethyl)-biphenyl-3-ol]",0.0683 µM,0.516 µM
"Fc1ccc(-c2ccc(OC(F)(F)F)cc2)c(CO[C@H]2CCNC2)c1 [Example D-91, (S)-3-(4-Fluoro-4′-trifluoromethoxy-biphenyl-2-ylmethoxy)-pyrrolidine]",0.935 µM,0.0165 µM
"COc1c(C)cc(-c2ccc(F)cc2CO[C@H]2CCNC2)cc1C [Example D-92, (S)-3-(4-Fluoro-4′-methoxy-3′,5′-dimethyl-biphenyl-2-ylmethoxy)-pyrrolidine]",0.738 µM,0.144 µM
"COc1cccc(-c2ccc(F)cc2CO[C@H]2CCNC2)c1F [Example D-93, (S)-3-(4,2′-Difluoro-3′-methoxy-biphenyl-2-ylmethoxy)-pyrrolidine]",1.12 µM,1.45 µM
"Cc1cc(-c2ccc(F)cc2CO[C@H]2CCNC2)ccc1F [Example D-94, (S)-3-(4,4′-Difluoro-3′-methyl-biphenyl-2-ylmethoxy)-pyrrolidine]",0.102 µM,0.0884 µM
"Fc1ccc(-c2cccc(OC(F)(F)F)c2)c(CO[C@H]2CCNC2)c1 [Example D-95, (S)-3-(4-Fluoro-3′-trifluoromethoxy-biphenyl-2-ylmethoxy)-pyrrolidine]",0.331 µM,0.122 µM
"Fc1ccc(-c2ccccc2OCc2ccccc2)c(CO[C@H]2CCNC2)c1 [Example D-97, (S)-3-(2′-Benzyloxy-4-fluoro-biphenyl-2-ylmethoxy)-pyrrolidine]",0.148 µM,0.286 µM

SMILES,Ki [1],Ki [2]
"COc1ccc(-c2ccc(F)cc2CO[C@H]2CCNC2)cc1C [Example D-98, (S)-3-(4-Fluoro-4′-methoxy-3′-methyl-biphenyl-2-ylmethoxy)-pyrrolidine]",0.187 µM,0.292 µM
"Oc1ccc(-c2ccc(F)cc2CO[C@H]2CCNC2)cc1 [Example D-99, (S)-4′-Fluoro-2′-(pyrrolidine-3-yloxymethyl)-biphenyl-4-ol]",0.0431 µM,0.659 µM
"COc1ccc(-c2ccc(F)cc2CO[C@H]2CCNC2)cc1F [Example D-100, (S)-3-(4,3′-Difluoro-4′-methoxy-biphenyl-2-ylmethoxy)-pyrrolidine]",0.404 µM,0.486 µM
"Fc1ccc(-c2ccccc2-c2ccccc2)c(CO[C@H]2CCNC2)c1 [Example D-101, (S)-3-(4″-Fluoro-[1,1′,2′,1″]terphenyl-2″-ylmethoxy)-pyrrolidine]",0.962 µM,3.78 µM
"CS(=O)(=O)c1ccc(-c2ccc(F)cc2CO[C@H]2CCNC2)cc1 [Example D-102, (S)-3-(4-Fluoro-4′-methanesulfonyl-biphenyl-2-methoxy)-pyrrolidine]",≥ 10 µM,≥ 10 µM
"Oc1ccccc1-c1ccc(F)cc1CO[C@H]1CCNC1 [Example D-103, (S)-4′-Fluoro-2′-(pyrrolidin-3-yloxymethyl)-biphenyl-2-ol]",0.65 µM,1.09 µM
"Cc1ccc(-c2ccc(F)cc2CO[C@H]2CCNC2)cc1C [Example D-104, (S)-3-(4-Fluoro-3′,4′-dimethyl-biphenyl-2-ylmethoxy)-pyrrolidine]",0.112 µM,0.22 µM
COc1cc(-c2ccc(F)cc2CO[C@H]2CCNC2)cc(OC)c1OC [Example D-105],1.52 µM,0.577 µM
"Cc1cc(F)ccc1-c1ccc(F)cc1CO[C@H]1CCNC1 [Example D-106, (S)-3-(4,4′-Difluoro-2′-methyl-biphenyl-2-ylmethoxy)-pyrrolidine]",0.121 µM,0.372 µM
"CC(C)Oc1ccc(-c2ccc(F)cc2CO[C@H]2CCNC2)cc1 [Example D-107, (S)-3-(4-Fluoro-4′-isopropoxy-biphenyl-2-ylmethoxy)-pyrrolidine]",3.83 µM,0.386 µM
"Fc1ccc(-c2cccc(Cl)c2)c(CO[C@H]2CCNC2)c1 [Example D-108, (S)-3-(3′-Chloro-4-fluoro-biphenyl-2-ylmethoxy)-pyrrolidine]",0.103 µM,0.057 µM
"CCS(=O)(=O)c1ccc(-c2ccc(F)cc2CO[C@H]2CCNC2)cc1 [Example D-109, (S)-3-(4′-Ethanesulfonyl-4-fluoro-biphenyl-2-ylmethoxy)-pyrrolidine]",≥ 10 µM,≥ 10 µM
"N#Cc1ccc(-c2ccc(F)cc2CO[C@H]2CCNC2)cc1 [Example D-110, (S)-4′-Fluoro-2′-(pyrrolidin-3-yloxymethyl)-biphenyl-4-carbonitrile]",1.2 µM,1.32 µM
"Fc1ccc(-c2ccc(Cl)cc2)c(CO[C@H]2CCNC2)c1 [Example D-111, (S)-3-(4′-Chloro-4-fluoro-biphenyl-2-ylmethoxy)-pyrrolidine]",0.097 µM,0.155 µM
"Cc1cc(C)n(-c2cccc(-c3ccc(F)cc3CO[C@H]3CCNC3)c2)n1 [Example D-112, (S)-1-[4′-Fluoro-2′-(pyrrolidin-3-yloxymethyl)-biphenyl-3-yl]-3,5-dimethyl-1H-pyrazole]",9.63 µM,0.107 µM
"CCc1ccccc1-c1ccc(F)cc1CO[C@H]1CCNC1 [Example D-113, (S)-3-(2′-Ethyl-4-fluoro-biphenyl-2-ylmethoxy)-pyrrolidine]",1.34 µM,1.47 µM
